Data on 15 compounds can be found in US11440880B2, “Thalidomide analogs and methods of use” (The USA, as represented by the Secretary, Department of …, priority 2015, dated 2022).

Holding throughout (assay type): cell-based, mouse
What all share (set-up): key: NS=not significant; a “+” sign=anti-inflammatory or increased cell numbers; a “−” sign=cell toxicity or pro-inflammatory

The test system of one data set is TNF-α protein. Description: TNF-α protein level (ELISA) in LPS-challenged RAW 264.7 cells. Particulars: LPS 30 or 60 ng/mL, 24 h. The method, then:
(§1) Nitrite levels in the culture media were measured by use of the Griess Reagent System (Promega, Madison, Wis.), following the manufacturer's protocol. The O.D. of unknown samples was read at 520 nm λ, compared to a sodium nitrite standard curve (1.5 μM to 100 μM) and nitrite measured media concentrations expressed as μM units. As the lowest nitrite concentration on the Griess Reagent System standard curve was 1.5 μM, this was chosen as the effective cutoff for defining measurable nitrite concentrations. TNF-α protein levels were measured by use of an ELISA specific for mouse TNF-α protein (BioLegend, San Diego, Calif.) and are expressed as a % change from their appropriate control or as pg/ml.
(§2) RAW 264.7 cells obtained from ATCC (Manassas, Va., USA) were grown in DMEM media supplemented with 10% FCS, penicillin 100 μg/ml and streptomycin 100 μg/ml, and maintained at 37° C. and 5% CO2. Cells were seeded in 24 well plates and, 24 hours later, were utilized in studies. One hour prior to the initiation of any study, the seeding media was replaced with fresh media (1 mL), and the cells were allowed to equilibrate at 37° C. and 5% CO2.
(§3) RAW 264.7 cells were challenged with LPS (Sigma, St Louis, Mo.: serotype 055:B5) from at a final concentration of 30 or 60 ng/mL. This concentration of LPS in RAW 264.7 cells induces a sub-maximal rise in both TNF-alpha and nitrite levels without a loss in cellular viability. This sub-maximal rise is useful for assessing whether the addition of an experimental drug can either lower or further raise levels of TNF-α and nitrite. Twenty four hours following the addition of LPS, conditioned media was harvested and analyzed for quantification of secreted TNF-α protein and nitrite levels. Fresh media was replaced into the wells and cell viability was then assessed.
(§4) Thalidomide and analogs were prepared in tissue culture grade DMSO (Sigma). RAW 264.7 cells were pretreated with thalidomide, analogues or vehicle one hour prior to a challenge with LPS. The effects of various concentrations of thalidomide analogues were assessed. All compounds were synthesized to a chemical purity of >99.5%, as assessed by chemical characterization by a combination of 1H NMR, 13C NMR and GC/MS analyses (Bruker AC-300 spectrometer, together with elemental analyses (Atlantic Microlab, Inc., Norcross, Ga.).
On the technique in general: In an ELISA, binding on a coated surface is turned into a signal by an enzyme label.

For data set [1], the system named is nitrite levels in the culture media. The data set can be described thus: Nitrite level (Griess Reagent System) in LPS-challenged RAW 264.7 cells. Particulars: LPS 30 or 60 ng/mL, 24 h. Here is the method: as §1, §2, §3, §4
The subject of a further data set is RAW 264.7 cells. Description: Cell viability (CellTiter 96 AQueous One) of LPS-challenged RAW 264.7 cells. The method, then:
The CellTiter 96® AQueous One Solution Cell Proliferation Assay (Promega, Madison, Wis.) is routinely used as an assay of cell proliferation, and was used according to the manufacturer's recommendations. Changes in cellular health status are determined by use of indirect measures related to the formation of a colored tetrazolium dye product that can be measured spectrophotometrically at 490 nm λ. […] Optical densities (expressed as O.D.s) were measured after various incubations.
as §2, §3, §4

For the compound `CC1(C)[C@@H]2CC[C@]1(C)[C@H](N1Cc3c(N)cccc3C1=O)C2` [Compound 95], the TNF-α entry in the data set on TNF-α protein (1 μM), with TNF-α protein (10 μM) and in the data set on TNF-α protein (30 μM) was “NS” in each case. In addition, the values for the Nitrite result in data set [1] (1 μM), in data set [1] (10 μM) and in data set [1] (30 μM) were “NS”, “NS” and “+”, respectively. Also, the Viability result in the data set with RAW 264.7 cells (1 μM) is on record as “NS”; with RAW 264.7 cells (10 μM) it was “+”; in the data set with RAW 264.7 cells (30 μM) it was “+”.

In the case of `O=C1c2cccc([N+](=O)[O-])c2CN1[C@@H]1C[C@H]2CC[C@@H]1C2` [Compound 99], the figures for the TNF-α entry in the data set with TNF-α protein (1 μM), with TNF-α protein (10 μM) and with TNF-α protein (30 μM) were “NS”, “NS” and “+”, respectively. Further, the Nitrite result in data set [1] (1 μM), in data set [1] (10 μM) and in data set [1] (30 μM) was “+” in each case. The Viability result in the data set on RAW 264.7 cells (1 μM) is recorded as “NS”; with RAW 264.7 cells (10 μM) it was “−”; with RAW 264.7 cells (30 μM), “−”.

On to `C[C@H]1[C@H](N2C(=O)C3CC=CCC3C2=O)C[C@@H]2C[C@H]1C2(C)C` (stereo partly drawn) [Compound 118], for which the TNF-α result with TNF-α protein (10 μM), in the data set with TNF-α protein (30 μM) and in the data set with TNF-α protein (60 μM) was “+” each time. Also, the Nitrite result in data set [1] (10 μM), in data set [1] (30 μM) and in data set [1] (60 μM) was “+” throughout. Besides, the Viability result in the data set on RAW 264.7 cells (10 μM), in the data set with RAW 264.7 cells (30 μM) and in the data set with RAW 264.7 cells (60 μM) was “−” throughout.

For the compound `CC1(C)[C@@H]2CC[C@]1(C)[C@@H](N1C=C3C(=CC=C/C3=N\OO)C1=O)C2` [Compound 98], the TNF-α result in the data set with TNF-α protein (1 μM) was “SIG”; in the data set with TNF-α protein (10 μM), “+”; with TNF-α protein (30 μM), “+”. The Nitrite entry in data set [1] (1 μM), in data set [1] (10 μM) and in data set [1] (30 μM) was “+” in each case. For the same compound, the Viability entry in the data set with RAW 264.7 cells (1 μM), in the data set with RAW 264.7 cells (10 μM) and in the data set with RAW 264.7 cells (30 μM) was “NS” in each case.

With `S=C1c2ccccc2CN1C12CC3CC(CC1C3)C2` [Compound 75], the TNF-α entry in the data set on TNF-α protein (1 μM) is “NS”; with TNF-α protein (10 μM) it was “+”; in the data set with TNF-α protein (30 μM), “+”. In addition, the Nitrite entry in data set [1] (1 μM), in data set [1] (10 μM) and in data set [1] (30 μM) was “NS” in each case. Further, the Viability result in the data set with RAW 264.7 cells (1 μM), in the data set on RAW 264.7 cells (10 μM) and in the data set on RAW 264.7 cells (30 μM) was “NS” throughout.

As for `O=C1c2cccc([N+](=O)[O-])c2CN1[C@H]1C[C@H]2CC[C@@H]1C2` [Compound 101], the values for the TNF-α result in the data set with TNF-α protein (1 μM), with TNF-α protein (10 μM) and in the data set on TNF-α protein (30 μM) were “NS”, “NS” and “+”, respectively. Moreover, the Nitrite entry in data set [1] (1 μM), in data set [1] (10 μM) and in data set [1] (30 μM) was “+” in each case. The Viability result is “−” in the data set on RAW 264.7 cells (1 μM), “−” in the data set on RAW 264.7 cells (10 μM) and “NS” in the data set with RAW 264.7 cells (30 μM).

Regarding `CC1(C)[C@@H]2CC[C@H](CN3C(=O)C4CC=CCC4C3=O)[C@H]1C2` (stereo partly drawn) [Compound 112], the figures for the TNF-α result with TNF-α protein (10 μM), in the data set on TNF-α protein (30 μM) and with TNF-α protein (60 μM) were “NS”, “+” and “+”, respectively. For the same compound, the Nitrite entry is “NS” in data set [1] (10 μM), “+” in data set [1] (30 μM) and “+” in data set [1] (60 μM). Moreover, the Viability entry in the data set on RAW 264.7 cells (10 μM), in the data set on RAW 264.7 cells (30 μM) and in the data set with RAW 264.7 cells (60 μM) was “−” in each case.

As to `CC1(C)[C@@H]2CC[C@]1(C)[C@@H](N1Cc3c(N)cccc3C1=O)C2` [Compound 97], the TNF-α result in the data set with TNF-α protein (1 μM) is reported as “NS”; with TNF-α protein (10 μM), “+”; with TNF-α protein (30 μM), “NS”. Besides, the Nitrite result in data set [1] (1 μM) was “NS”; in data set [1] (10 μM), “NS”; in data set [1] (30 μM), “+”. The Viability result in the data set with RAW 264.7 cells (1 μM), with RAW 264.7 cells (10 μM) and in the data set with RAW 264.7 cells (30 μM) was “NS” in each case.

`CC1(C)[C@@H]2CC[C@H](CN3Cc4c(N)cccc4C3=O)[C@H]1C2` [Compound 104]: the TNF-α entry with TNF-α protein (1 μM), with TNF-α protein (10 μM) and with TNF-α protein (30 μM) was “NS” throughout. Further, the Nitrite entry in data set [1] (1 μM), in data set [1] (10 μM) and in data set [1] (30 μM) was “−” each time. For the same compound, the Viability entry in the data set on RAW 264.7 cells (1 μM), with RAW 264.7 cells (10 μM) and in the data set on RAW 264.7 cells (30 μM) was “NS” throughout.

`CC1(C)[C@@H]2CC[C@]1(C)[C@@H](N1C(=O)C3CC=CCC3C1=O)C2` (stereo partly drawn) [Compound 115]: the TNF-α result in the data set with TNF-α protein (10 μM), in the data set on TNF-α protein (30 μM) and with TNF-α protein (60 μM) was “+” each time. The Nitrite entry in data set [1] (10 μM), in data set [1] (30 μM) and in data set [1] (60 μM) was “+” throughout. The Viability entry in the data set on RAW 264.7 cells (10 μM), with RAW 264.7 cells (30 μM) and with RAW 264.7 cells (60 μM) was “−” throughout.

Consider `O=C1c2cccc([N+](=O)[O-])c2CN1C12CC3CC(CC(O)(C3)C1)C2` [Compound 87], for which the TNF-α entry with TNF-α protein (1 μM), in the data set on TNF-α protein (10 μM) and in the data set on TNF-α protein (30 μM) was “NS” each time. For the same compound, the Nitrite result in data set [1] (1 μM), in data set [1] (10 μM) and in data set [1] (30 μM) was “NS” each time. Moreover, the Viability result in the data set with RAW 264.7 cells (1 μM), in the data set on RAW 264.7 cells (10 μM) and in the data set with RAW 264.7 cells (30 μM) was “NS” throughout.

As to `Nc1cccc2c1CN([C@H]1C[C@H]3CC[C@@H]1C3)C2=O` [Compound 102], the TNF-α entry in the data set with TNF-α protein (1 μM), with TNF-α protein (10 μM) and in the data set on TNF-α protein (30 μM) was “NS” in each case. In addition, the Nitrite result in data set [1] (1 μM), in data set [1] (10 μM) and in data set [1] (30 μM) was “NS” in each case. The Viability result in the data set with RAW 264.7 cells (1 μM), in the data set with RAW 264.7 cells (10 μM) and in the data set on RAW 264.7 cells (30 μM) was “NS” throughout.

In the case of `O=C1c2cccc([N+](=O)[O-])c2CN1CC12CC3CC(CC(C3)C1)C2` [Compound 78], the TNF-α entry in the data set with TNF-α protein (1 μM) was “NS”; in the data set on TNF-α protein (10 μM), “+”; in the data set with TNF-α protein (30 μM) it was “+”. Moreover, the Nitrite result in data set [1] (1 μM) was “NS”; in data set [1] (10 μM), “NS”; in data set [1] (30 μM), “+”. For the same compound, the values for the Viability result in the data set on RAW 264.7 cells (1 μM), in the data set on RAW 264.7 cells (10 μM) and with RAW 264.7 cells (30 μM) were “NS”, “NS” and “−”, respectively.

Turning to `C[C@@H]1[C@@H](N2Cc3c(cccc3[N+](=O)[O-])C2=O)C[C@H]2C[C@@H]1C2(C)C` [Compound 92], the TNF-α entry in the data set with TNF-α protein (1 μM) was “NS”; in the data set with TNF-α protein (10 μM), “+”; in the data set on TNF-α protein (30 μM), “+”. Moreover, the Nitrite entry in data set [1] (1 μM), in data set [1] (10 μM) and in data set [1] (30 μM) was “+” throughout. Also, the Viability entry is on record as “NS” in the data set on RAW 264.7 cells (1 μM), “−” with RAW 264.7 cells (10 μM) and “−” in the data set on RAW 264.7 cells (30 μM).

For `CC1(C)[C@@H]2CC[C@]1(C)[C@@H](N1C(=O)C3C4C=CC(C4)C3C1=O)C2` (stereo partly drawn) [Compound 117], the TNF-α entry in the data set with TNF-α protein (10 μM), with TNF-α protein (30 μM) and in the data set on TNF-α protein (60 μM) was “+” throughout. In addition, the Nitrite result in data set [1] (10 μM), in data set [1] (30 μM) and in data set [1] (60 μM) was “+” throughout. Further, the Viability entry in the data set with RAW 264.7 cells (10 μM), in the data set on RAW 264.7 cells (30 μM) and in the data set on RAW 264.7 cells (60 μM) was “−” each time.
